Measured values from PubChem BioAssay (NCI).
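Growth conditions: 96-well plates. Treatment: test compound, 48 hours, 5 concentrations. Analysis: linear interpolation between bracketing concentrations; unreached endpoints set to highest concentration. Abbreviation: GI50, concentration required for 50% inhibition of growth. The concentration for full growth arrest is given as TGI.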

Experiments:
Assay in all cases: DTP human tumour cell line panel, 48 h
MALME-3M melanoma = test system: MALME-3M melanoma
HS 578T breast = test system: HS 578T breast
LOX IMVI melanoma = test system: LOX IMVI melanoma
OVCAR-4 ovarian = test system: OVCAR-4 ovarian
RXF 393 renal = test system: RXF 393 renal
OVCAR-8 ovarian = test system: OVCAR-8 ovarian
SF-268 CNS = test system: SF-268 CNS
SK-OV-3 ovarian = test system: SK-OV-3 ovarian
MOLT-4 leukemia = test system: MOLT-4 leukemia
T-47D breast = test system: T-47D breast
OVCAR-5 ovarian = test system: OVCAR-5 ovarian
NCI/ADR-RES ovarian = test system: NCI/ADR-RES ovarian
DU-145 prostate = test system: DU-145 prostate
IGROV1 ovarian = test system: IGROV1 ovarian
UACC-257 melanoma = test system: UACC-257 melanoma
HT29 colon = test system: HT29 colon
MCF7 breast = test system: MCF7 breast
MDA-MB-435 = test system: MDA-MB-435
K-562 leukemia = test system: K-562 leukemia
SNB-75 CNS = test system: SNB-75 CNS
HCT-116 colon = test system: HCT-116 colon
A549 NSCLC = test system: A549 NSCLC
SNB-19 CNS = test system: SNB-19 CNS
ACHN renal = test system: ACHN renal
U251 CNS = test system: U251 CNS
SR leukemia = test system: SR leukemia
NCI-H522 lung = test system: NCI-H522 lung
SW-620 colon = test system: SW-620 colon
NCI-H460 lung = test system: NCI-H460 lung
EKVX NSCLC = test system: EKVX NSCLC
SK-MEL-28 melanoma = test system: SK-MEL-28 melanoma
HOP-92 NSCLC = test system: HOP-92 NSCLC
HL-60(TB) leukemia = test system: HL-60(TB) leukemia
TK-10 renal = test system: TK-10 renal
HCC-2998 colon = test system: HCC-2998 colon
SF-539 CNS = test system: SF-539 CNS
A498 renal = test system: A498 renal
786-0 renal = test system: 786-0 renal
CCRF-CEM leukemia = test system: CCRF-CEM leukemia
UACC-62 melanoma = test system: UACC-62 melanoma
OVCAR-3 ovarian = test system: OVCAR-3 ovarian
SN12C renal = test system: SN12C renal
SF-295 CNS = test system: SF-295 CNS
KM12 colon = test system: KM12 colon
PC-3 prostate = test system: PC-3 prostate
CAKI-1 renal = test system: CAKI-1 renal
MDA-MB-231 breast = test system: MDA-MB-231 breast
MDA-MB-468 breast = test system: MDA-MB-468 breast
SK-MEL-2 melanoma = test system: SK-MEL-2 melanoma
HOP-62 NSCLC = test system: HOP-62 NSCLC
COLO 205 colon = test system: COLO 205 colon
UO-31 renal = test system: UO-31 renal
NCI-H226 lung = test system: NCI-H226 lung
RPMI-8226 leukemia = test system: RPMI-8226 leukemia
HCT-15 colon = test system: HCT-15 colon
NCI-H23 lung = test system: NCI-H23 lung
M14 melanoma = test system: M14 melanoma
SK-MEL-5 melanoma = test system: SK-MEL-5 melanoma
BT-549 breast = test system: BT-549 breast

Work on `CCCCN1C(=O)/C(=C\C(=O)c2cc3ccccc3oc2=O)c2ccccc21` yielded a GI50 (MALME-3M melanoma) of 13.7 µM, a TGI (MALME-3M melanoma) of 26.7 µM and a GI50 (HS 578T breast) of 20.7 µM. For the same compound, the TGI (HS 578T breast) was greater than 100 µM, the GI50 (LOX IMVI melanoma) was 15.2 µM and the TGI (LOX IMVI melanoma) was 28.7 µM. The GI50 (OVCAR-4 ovarian) was 16.9 µM, the TGI (OVCAR-4 ovarian) was 35.4 µM and the GI50 (RXF 393 renal) was 15.7 µM. For the same compound, the TGI (RXF 393 renal) was 29.6 µM, the GI50 (OVCAR-8 ovarian) was 18.3 µM and the TGI (OVCAR-8 ovarian) was 47.5 µM. The GI50 (SF-268 CNS) was 16.9 µM, the TGI (SF-268 CNS) was 36.3 µM and the GI50 (SK-OV-3 ovarian) was greater than 100 µM. The TGI (SK-OV-3 ovarian) was greater than 100 µM, the GI50 (MOLT-4 leukemia) was 22.4 µM and the TGI (MOLT-4 leukemia) was 64 µM. It also gave a GI50 (T-47D breast) of 14 µM, a TGI (T-47D breast) of 28.7 µM and a GI50 (OVCAR-5 ovarian) of 30.6 µM. For the same compound, the TGI (OVCAR-5 ovarian) was greater than 100 µM, the GI50 (NCI/ADR-RES ovarian) was 22.9 µM and the TGI (NCI/ADR-RES ovarian) was 64.3 µM. It also gave a GI50 (DU-145 prostate) of 16.7 µM, a TGI (DU-145 prostate) of 33.2 µM and a GI50 (IGROV1 ovarian) of 24.5 µM. The TGI (IGROV1 ovarian) was 94.8 µM, the GI50 (UACC-257 melanoma) was 14.7 µM and the TGI (UACC-257 melanoma) was 31.3 µM. For the same compound, the GI50 (HT29 colon) was 20.3 µM, the TGI (HT29 colon) was 41.2 µM and the GI50 (MCF7 breast) was 12.6 µM. It also gave a TGI (MCF7 breast) of 28.7 µM, a GI50 (MDA-MB-435) of 17.6 µM and a TGI (MDA-MB-435) of 41.6 µM. The GI50 (K-562 leukemia) was 11.6 µM, the TGI (K-562 leukemia) was 84.7 µM and the GI50 (SNB-75 CNS) was 19 µM. It also gave a TGI (SNB-75 CNS) greater than 100 µM, a GI50 (HCT-116 colon) of 16.3 µM and a TGI (HCT-116 colon) of 31.1 µM. The GI50 (A549 NSCLC) was greater than 100 µM, the TGI (A549 NSCLC) was greater than 100 µM and the GI50 (SNB-19 CNS) was greater than 100 µM. The TGI (SNB-19 CNS) was greater than 100 µM, the GI50 (ACHN renal) was 13.4 µM and the TGI (ACHN renal) was 26.1 µM. For the same compound, the GI50 (U251 CNS) was greater than 100 µM, the TGI (U251 CNS) was greater than 100 µM and the GI50 (SR leukemia) was 23 µM. It also gave a TGI (SR leukemia) of 86.1 µM, a GI50 (NCI-H522 lung) of 14.3 µM and a TGI (NCI-H522 lung) of 28.7 µM. For the same compound, the GI50 (SW-620 colon) was 14.3 µM, the TGI (SW-620 colon) was 29.7 µM and the GI50 (NCI-H460 lung) was greater than 100 µM. For the same compound, the TGI (NCI-H460 lung) was greater than 100 µM, the GI50 (EKVX NSCLC) was 15.5 µM and the TGI (EKVX NSCLC) was 32 µM. The GI50 (SK-MEL-28 melanoma) was 15.5 µM, the TGI (SK-MEL-28 melanoma) was 29.1 µM and the GI50 (HOP-92 NSCLC) was 13 µM. The TGI (HOP-92 NSCLC) was 27.7 µM, the GI50 (HL-60(TB) leukemia) was 3.06 µM and the TGI (HL-60(TB) leukemia) was 11.9 µM. It also gave a GI50 (TK-10 renal) of 20.9 µM, a TGI (TK-10 renal) of 35.8 µM and a GI50 (HCC-2998 colon) greater than 100 µM. It also gave a TGI (HCC-2998 colon) greater than 100 µM, a GI50 (SF-539 CNS) of 16.2 µM and a TGI (SF-539 CNS) of 30 µM. It also gave a GI50 (A498 renal) greater than 100 µM, a TGI (A498 renal) greater than 100 µM and a GI50 (786-0 renal) of 18 µM. It also gave a TGI (786-0 renal) of 31.9 µM, a GI50 (CCRF-CEM leukemia) of 4.26 µM and a TGI (CCRF-CEM leukemia) of 24.2 µM. The GI50 (UACC-62 melanoma) was 14.6 µM, the TGI (UACC-62 melanoma) was 29.7 µM and the GI50 (OVCAR-3 ovarian) was 15.2 µM. For the same compound, the TGI (OVCAR-3 ovarian) was 29.7 µM, the GI50 (SN12C renal) was 14.7 µM and the TGI (SN12C renal) was 30 µM. It also gave a GI50 (SF-295 CNS) greater than 100 µM, a TGI (SF-295 CNS) greater than 100 µM and a GI50 (KM12 colon) greater than 100 µM. For the same compound, the TGI (KM12 colon) was greater than 100 µM, the GI50 (PC-3 prostate) was 32.2 µM and the TGI (PC-3 prostate) was greater than 100 µM. It also gave a GI50 (CAKI-1 renal) of 14.2 µM, a TGI (CAKI-1 renal) of 27.8 µM and a GI50 (MDA-MB-231 breast) of 14.3 µM. The TGI (MDA-MB-231 breast) was 27.6 µM, the GI50 (MDA-MB-468 breast) was 4.5 µM and the TGI (MDA-MB-468 breast) was 17.8 µM. The GI50 (SK-MEL-2 melanoma) was 52 µM, the TGI (SK-MEL-2 melanoma) was greater than 100 µM and the GI50 (HOP-62 NSCLC) was greater than 100 µM. For the same compound, the TGI (HOP-62 NSCLC) was greater than 100 µM, the GI50 (COLO 205 colon) was 17 µM and the TGI (COLO 205 colon) was 31.1 µM. It also gave a GI50 (UO-31 renal) of 11.4 µM, a TGI (UO-31 renal) of 23.7 µM and a GI50 (NCI-H226 lung) of 14.4 µM. For the same compound, the TGI (NCI-H226 lung) was 31.7 µM, the GI50 (RPMI-8226 leukemia) was 19.9 µM and the TGI (RPMI-8226 leukemia) was 54.4 µM. The GI50 (HCT-15 colon) was 15.6 µM, the TGI (HCT-15 colon) was 30.7 µM and the GI50 (NCI-H23 lung) was 27.4 µM. The TGI (NCI-H23 lung) was greater than 100 µM, the GI50 (M14 melanoma) was 14.8 µM and the TGI (M14 melanoma) was 29.3 µM. It also gave a GI50 (SK-MEL-5 melanoma) of 48.7 µM, a TGI (SK-MEL-5 melanoma) greater than 100 µM and a GI50 (BT-549 breast) of 19.4 µM. The TGI (BT-549 breast) was 70.1 µM.
